Measurements: patent US20240197726A1, “NOVEL TETRAHYDROISOQUINOLINE ALKALOID COMPOUND CONTAINING MACROCYCLE” (THE UNIVERSITY OF TOKYO, priority 2021, published 2024)
Like-named read-outs stand apart in the source and are kept apart here.

What was measured:
Type in all cases: cell-based
[1] = tested on: SF-295 central nervous system cancer cells; test: antitumor activity, sulforhodamine B cell growth assay, SF-295; settings: SF-295, drug exposure 48 hours, read-out: GI50 value: 50% growth inhibitory concentration
Description: (§1) The THIQ compound containing a macrocyclic structure of the present invention was administered to various cancer cell lines, and the antitumor activity (Go value) was observed. Specifically, verification was performed according to the literature (Yamori, T.; Matsunaga, A.; Sato, S.; Yamazaki, K.; Komi, A.; Ishizu, K. et al. Cancer Res. 1999, 59, 4042) by the following procedure.
(§2) Cells were plated at an appropriate density in a 96-well plate in RPMI 1640 together with 5% fetal bovine serum, and adhered overnight. The cells were exposed to a drug for 48 hours. Then, according to the sulforhodamine B assay described by Skehan et al (Skehan P., Storeng R., Scudiero D., Monks A., McMahon J., Vistica D., Warren J. T., Bokesch H., Kenney S., Boyd M. R. J Natl. Cancer Inst, 1990, 82, 1107-1112), the cell growth rate was measured. The absorbance of the control well (C) and the test well (T) was measured at 525 nm. In addition, the time at which the drug was added was set as time 0, and the absorbance for the test well (T0) was measured. Using these measured values, the cell growth inhibitory effect (% growth=PG) was calculated by the following formula at each concentration of the drug.
(§3) (T<T0): PG=100×[(T−T0)/T]
(§4) The PG values determined above for each cell line were plotted against the concentration (logarithm) on a semi-logarithmic graph, and summarized for each visceral cancer. Concentrations at which the dose-response curve of each cell line crossed the horizontal line of PG=50%, 0%, or −50% were calculated. These concentrations were defined as Log GI50, Log TGI, and Log LC50. Actually, using two data points of the drug concentration before and after crossing each horizontal line, the drug concentration (logarithmic value) at the intersection of the straight line connecting the two points and the horizontal line for each PG was calculated.

[2] = tested on: MCF-7 breast cancer cells; test: antitumor activity, sulforhodamine B cell growth assay, MCF-7; settings: MCF-7, drug exposure 48 hours, read-out: GI50 value: 50% growth inhibitory concentration
Description: as §1, §2, §3, §4

[3] = tested on: NCI-H522 lung cancer cells; test: antitumor activity, sulforhodamine B cell growth assay, NCI-H522; settings: NCI-H522, drug exposure 48 hours, read-out: GI50 value: 50% growth inhibitory concentration
Description: as §1, §2, §3, §4

[4] = tested on: HT-29 colorectal cancer cells; test: antitumor activity, sulforhodamine B cell growth assay, HT-29; settings: HT-29, drug exposure 48 hours, read-out: GI50 value: 50% growth inhibitory concentration
Description: as §1, §2, §3, §4

[5] = tested on: SK-OV-3 cancer cells; test: antitumor activity, sulforhodamine B cell growth assay, SK-OV-3; settings: SK-OV-3, drug exposure 48 hours, read-out: GI50 value: 50% growth inhibitory concentration
Description: as §1, §2, §3, §4

[6] = tested on: OVCAR-5 cervical cancer cells; test: antitumor activity, sulforhodamine B cell growth assay, OVCAR-5; settings: OVCAR-5, drug exposure 48 hours, read-out: GI50 value: 50% growth inhibitory concentration
Description: as §1, §2, §3, §4

[7] = tested on: NCI-H23 lung cancer cells; test: antitumor activity, sulforhodamine B cell growth assay, NCI-H23; settings: NCI-H23, drug exposure 48 hours, read-out: GI50 value: 50% growth inhibitory concentration
Description: as §1, §2, §3, §4

[8] = tested on: NCI-H226 lung cancer cells; test: antitumor activity, sulforhodamine B cell growth assay, NCI-H226; settings: NCI-H226, drug exposure 48 hours, read-out: GI50 value: 50% growth inhibitory concentration
Description: as §1, §2, §3, §4

[9] = tested on: MKN-A gastric cancer cells; test: antitumor activity, sulforhodamine B cell growth assay, MKN-A; settings: MKN-A, drug exposure 48 hours; read-out: GI50 value: 50% growth inhibitory concentration
Description: as §1, §2, §3, §4

[10] = tested on: OVCAR-4 cancer cells; test: antitumor activity, sulforhodamine B cell growth assay, OVCAR-4; settings: OVCAR-4, drug exposure 48 hours, read-out: GI50 value: 50% growth inhibitory concentration
Description: as §1, §2, §3, §4

[11] = tested on: PC-3 prostate cancer cells; test: antitumor activity, sulforhodamine B cell growth assay, PC-3; settings: PC-3, drug exposure 48 hours; read-out: GI50 value: 50% growth inhibitory concentration
Description: as §1, §2, §3, §4

[12] = tested on: RXF-631L kidney cancer cells; test: antitumor activity, sulforhodamine B cell growth assay, RXF-631L; settings: RXF-631L, drug exposure 48 hours; read-out: GI50 value: 50% growth inhibitory concentration
Description: as §1, §2, §3, §4

[13] = tested on: SNB-75 central nervous system cancer cells; test: antitumor activity, sulforhodamine B cell growth assay, SNB-75; settings: SNB-75, drug exposure 48 hours, read-out: GI50 value: 50% growth inhibitory concentration
Description: as §1, §2, §3, §4

[14] = tested on: MDA-MB-231 breast cancer cells; test: antitumor activity, sulforhodamine B cell growth assay, MDA-MB-231; settings: MDA-MB-231, drug exposure 48 hours, read-out: GI50 value: 50% growth inhibitory concentration
Description: as §1, §2, §3, §4

[15] = tested on: MKN74 gastric cancer cells; test: antitumor activity, sulforhodamine B cell growth assay, MKN74; settings: MKN74, drug exposure 48 hours, read-out: GI50 value: 50% growth inhibitory concentration
Description: as §1, §2, §3, §4

[16] = tested on: DU-145 prostate cancer cells; test: antitumor activity, sulforhodamine B cell growth assay, DU-145; settings: DU-145, drug exposure 48 hours, read-out: GI50 value: 50% growth inhibitory concentration
Description: as §1, §2, §3, §4

[17] = tested on: SF-539 central nervous system cancer cells; test: antitumor activity, sulforhodamine B cell growth assay, SF-539; settings: SF-539, drug exposure 48 hours, read-out: GI50 value: 50% growth inhibitory concentration
Description: as §1, §2, §3, §4

[18] = tested on: A549 lung cancer cells; test: antitumor activity, sulforhodamine B cell growth assay, A549; settings: A549, drug exposure 48 hours, read-out: GI50 value: 50% growth inhibitory concentration
Description: as §1, §2, §3, §4

| SMILES | GI50 ([1]; Homo sapiens) [µM] | GI50 ([2]; Homo sapiens, MCF7) [µM] | GI50 ([3]; Homo sapiens) [µM] | GI50 ([4]; Homo sapiens) [µM] | GI50 ([5]; Homo sapiens) [µM] | GI50 ([6]; Homo sapiens) [µM] | GI50 ([7]; Homo sapiens) [µM] | GI50 ([8]; Homo sapiens) [µM] | GI50 [9] [µM] | GI50 ([10]; Homo sapiens) [µM] | GI50 [11] [µM] | GI50 [12] [µM] | GI50 ([13]; Homo sapiens) [µM] | GI50 ([14]; Homo sapiens) [µM] | GI50 ([15]; Homo sapiens, MKN-74) [µM] | GI50 ([16]; Homo sapiens) [µM] | GI50 ([17]; Homo sapiens) [µM] | GI50 ([18]; Homo sapiens) [µM] | GI50 [1] [µM] | GI50 [2] [µM] | other results |
| --- | --- | --- | --- | --- | --- | --- | --- | --- | --- | --- | --- | --- | --- | --- | --- | --- | --- | --- | --- | --- | --- |
| COc1c(C)cc2c(c1O)[C@@H]1[C@@H]3Cc4c5c(C)c6c(c4C(CNC(=O)[C@H](C)NC(=O)OCC4C=C(CO5)Cn5c(=O)n(-c7ccccc7)c(=O)n54)N3[C@@H](C#N)[C@H](C2)N1C)OCO6 [Compound 16] | 0.029 | 0.0044 | 0.0024 | 0.0073 | 0.034 | 0.031 | 0.02 | 0.025 | 0.029 | 0.036 | 0.026 | 0.035 | 0.0099 | 0.0067 | 0.032 | 0.041 | 0.0082 | 0.051 | – | – | – |
| COc1c(C)cc2c(c1O)C1C3Cc4c5c(C)c6c(c4C(CNC(=O)C(C)NC(=O)OCC4C=C(CO5)CC5C(=O)N(c7ccccc7)C(=O)C45)N3C(C#N)C(C2)N1C)OCO6 (stereo not drawn) [Compound 18] | – | – | – | – | – | – | – | – | 0.21 | – | 0.17 | 0.31 | – | – | – | – | – | – | 0.3 | 0.022 | GI50 [3]: 0.02 µM; GI50 [4]: 0.072 µM; GI50 [5]: 0.41 µM; GI50 [6]: 0.28 µM; GI50 [7]: 0.11 µM; GI50 [8]: 0.28 µM; GI50 [10]: 0.35 µM; GI50 [13]: 0.05 µM; GI50 [14]: 0.041 µM; GI50 [15]: 0.12 µM; GI50 [16]: 0.33 µM; GI50 [17]: 0.033 µM; GI50 [18]: 0.54 µM |
| COc1c(C)cc2c(c1O)[C@@H]1[C@@H]3Cc4c5c(C)c6c(c4C(CNC(=O)[C@H](C)N(C)CC#CCO5)N3[C@@H](C#N)[C@H](C2)N1C)OCO6 [Compound 29] | 0.0034 | 0.00067 | 0.0006 | 0.002 | 0.0057 | 0.0032 | 0.0026 | 0.0025 | 0.0035 | 0.0035 | 0.003 | 0.0031 | 0.0013 | 0.0023 | 0.0037 | 0.0035 | 0.0013 | 0.0034 | – | – | – |
| C=C1/C=C/CN[C@@H](C)C(=O)NCC2c3c(c(c(C)c4c3OCO4)OC1)C[C@H]1[C@H]3c4c(cc(C)c(OC)c4O)C[C@@H]([C@H](C#N)N21)N3C [Compound 33] | – | – | – | – | – | – | – | – | 0.33 | – | 0.19 | 0.3 | – | – | – | – | – | – | 0.27 | 0.026 | GI50 [3]: 0.025 µM; GI50 [4]: 0.086 µM; GI50 [5]: 0.5 µM; GI50 [6]: 0.31 µM; GI50 [7]: 0.093 µM; GI50 [8]: 0.26 µM; GI50 [10]: 0.4 µM; GI50 [13]: 0.096 µM; GI50 [14]: 0.052 µM; GI50 [15]: 0.26 µM; GI50 [16]: 0.37 µM; GI50 [17]: 0.046 µM; GI50 [18]: 0.36 µM |
| C#CCN1C/C=C/C(=C)COc2c(C)c3c(c4c2C[C@H]2[C@H]5c6c(cc(C)c(OC)c6O)C[C@@H]([C@H](C#N)N2C4CNC(=O)[C@@H]1C)N5C)OCO3 [Compound 35] | 0.0038 | 0.00087 | 0.0011 | 0.0032 | 0.0065 | 0.0033 | 0.0035 | 0.0027 | 0.0037 | 0.0036 | 0.0033 | 0.0029 | 0.0017 | 0.0027 | 0.0045 | 0.0038 | 0.0022 | 0.0072 | – | – | – |
| COc1c(C)cc2c(c1O)C1C3Cc4c5c(C)c6c(c4C(CNC(=O)C(C)NCC=CCO5)N3C(C#N)C(C2)N1C)OCO6 (stereo not drawn) [Compound 42] | – | – | – | – | – | – | – | – | 0.036 | – | 0.04 | 0.034 | – | – | – | – | – | – | 0.038 | < 0.01 | GI50 [3]: < 0.01 µM; GI50 [4]: 0.013 µM; GI50 [5]: 0.049 µM; GI50 [6]: 0.047 µM; GI50 [7]: 0.031 µM; GI50 [8]: 0.03 µM; GI50 [10]: 0.055 µM; GI50 [13]: < 0.01 µM; GI50 [14]: < 0.01 µM; GI50 [15]: 0.035 µM; GI50 [16]: 0.058 µM; GI50 [17]: 0.017 µM; GI50 [18]: 0.11 µM |
